The values below are quoted from earlier work in publication PMC11665553, “12-Lipoxygenase inhibition delays onset of autoimmune diabetes in human gene replacement mice” (JCI Insight, 2024).

On the set-up of series [1]: method as in PMID 28842399. The following applies: cited from earlier work.
In a further series the test system is NOD mice. On the set-up: method as in PMID 28842399. The following applies: cited from earlier work.

As to `CC(=O)NC(c1cccs1)c1cc(Br)c2cccnc2c1O` (centres unmarked) [ML127], in series [1], the Off-target cytotoxicity entry was “evidence of off-target cytotoxicity”.
Take `CNc1oc(-c2cccc3ccccc23)nc1C#N` [ML351]: in the series on NOD mice, the “Effect in NOD mice” value was “reductions in insulitis and improvements in glucose homeostasis”.
